Results: patent US11857536B2, “Glucokinase activator for treating diabetes with renal impairment” (HUA Medicine (Shanghai) Ltd., priority 2020, dated 2024)
Like-named read-outs stand apart in the source and are kept apart here.

Assay: Phase I open-label, parallel-group, single oral dose pharmacokinetic study of dorzagliatin in ESRD and healthy subjects
Type: in vivo, human
Details: single 25 mg oral dose; for AUC(0-inf) / AUC(0-t) / Cmax: human, po, 25 mg; for Cmax: read-out: Cmax, LS mean
From the text: This phase I study was to access the pharmacokinetics and safety of a single dose of dorzagliatin in renally impaired and heathy subjects. The study was divided into two phases: Phase 1 having two groups (P1 and H) and Phase 2 having three groups (P2, P3, and P4). Phase 2 would start after the completion of Phase 1 and determining an increase of ≥100% in the average AUC (AUClast or AUCinf) of the ESRD subjects than that of the healthy subjects in Phase 1. The ESRD subjects of Group P1 were matched closely with the healthy subjects as to their sexes, ages (±5 yrs), and BMIs (±15%).
In Phase 1, eligible subjects were admitted to a clinical research center (CRC) on Day −2 or −1. On Day −1, the subjects had no additional food after a standard dinner for at least 10 h. In the morning of Day 1, the subjects received dorzagliatin (25 mg) orally with empty stomach. […] Blood samples were collected at the following time points: within 60 min pre-dose; and at 0.25, 0.5, 1, 1.5, 2, 2.5, 3, 4, 6, 8, 12, 24, 36, 48, and 72 h post-dose. Urine samples for the pharmacokinetic (PK) analysis were collected at the following time points: within 60 min pre-dose; and at 0˜4, 4˜8, 8˜12, 12˜24, 24˜36, 36˜48, and 48˜72 h post-dose. The samples were analyzed using LC-MS/MS. The plasma concentration-time data for dorzagliatin were analyzed using a non-compartmental model to obtain PK parameters, including Cmax, AUClast, AUCinf, Cmax,u, AUClast,u, and AUCinf,u. An ANOVA analysis was performed on the data between H and P1 groups.

Cmax, u, LS mean (Group H (healthy), fasted): 29.5 ng/mL | AUClast, LS mean (Group H (healthy), fasted, plasma): 1857 ng·h/mL | Cmax, u, LS mean (Group P1 (ESRD), fasted): 27.5 ng/mL | AUC(0-inf) (plasma, Group H (healthy), fasted, plasma, read-out: AUCinf, LS mean): 1890 ng·h/mL | AUC(0-inf) (plasma, Group H (healthy), fasted, read-out: AUCinf, u, LS mean): 126 ng·h/mL | AUC(0-t) (plasma, Group H (healthy), fasted, read-out: AUClast, u, LS mean): 124 ng·h/mL | Cmax (plasma, Group H (healthy, eGFR ≥90), fasted, plasma): 442 ng/mL | AUC(0-inf) (plasma, Group P1 (ESRD), fasted, plasma, read-out: AUCinf, LS mean): 2070 ng·h/mL | AUC(0-t) (plasma, Group P1 (ESRD), fasted, plasma, read-out: AUClast, LS mean): 2060 ng·h/mL | AUC(0-inf) (plasma, Group P1 (ESRD), fasted, read-out: AUCinf, u, LS mean): 163 ng·h/mL | AUC(0-t) (plasma, Group P1 (ESRD), fasted, read-out: AUClast, u, LS mean): 162 ng·h/mL | Cmax (plasma, Group P1 (ESRD, eGFR <15, no dialysis), fasted, plasma): 356 ng/mL | Cmax, u GMR (P1/H) (ratio ESRD/healthy): 0.93 | AUCinf in ESRD subjects (Group P1) compared to healthy subjects (Group H), in words: substantially the same | Cmax in ESRD subjects (Group P1) compared to healthy subjects (Group H), in words: slightly decreased | Difference in AUC between Groups H and P1, in words (ANOVA, preset criterion AUC increase >100% not met): no significant difference
Compound: CC(C)C[C@@H](C(=O)Nc1ccn(C[C@@H](O)CO)n1)N1CC(Oc2ccccc2Cl)=CC1=O [dorzagliatin, (S)-2-(4-(2-chlorophenoxy)-2-oxo-2,5-dihydro-1H-pyrrol-1-yl)-N-(1-((R)-2,3-dihydroxypropyl)-1H-pyrazol-3-yl)-4-methylpentanamide]
